Data published in patent US20230111310A1, “CARBOXYLIC ACID DERIVATIVE-SUBSTITUTED IMINO ARYL COMPOUND, PREPARATION METHOD THEREFOR, HERBICIDAL COMPOSITION AND USE THEREOF” (Qingdao Kingagroot Chemical Compound Co., Ltd., priority 2020, published 2023).

Test system: Echinochloa caudata Roshev.
Assay: Composition activity test, post-emergence foliage spray
Type: in vivo
Method: are as follows, and the others were purchased from reagent companies. The technical materials were all dissolved in acetone and diluted with an aqueous solution containing 0.1% emulsifier Tween-80. The dilution is performed as required.
Weeds were cultivated by a pot culture method. […] Full and uniform weed seeds were selected, soaked in warm water at 25° C. for 6 hours, and germinated in a 28° C. biochemical incubator (darkness). The weed seeds that had just germinated were evenly placed on the surface of the soil and then covered with 0.5-1 cm soil according to the sizes of seeds.
The culture was carried out in a controllable sunlight greenhouse at 20 to 30° C., in natural light, and relative humidity of 57% to 72%.
3 pots with 20 weed seeds per pot were treated in one treatment with 4 replications per treatment.
The agents were used for only once in the experiment. In the stage of weeds with 1.5-2 leaves, the weeds were thinned out to maintain 10 weeds per pot and 30 weeds for each treatment, then continued to be cultured to Conyza Canadensis 10 cm in height, other weeds 3-4 leaves stage and treated.
The well-cultured weeds were evenly placed on a platform with an area of 0.5 m^2, and a solution of agents was sprayed on the stems and leaves thereof by the 3WP-2000-type walking spray tower at a dosage of 450 kg/ha and at a spray pressure of 0.3 MPa. After all the solution was sprayed, the valve was closed. After 30 seconds, the door of the spray tower was opened, and the nutritional bowl was taken out. Then the valve was opened, and the spray tube was cleaned by spraying 50 ml of water. After the treatment, the weeds were routinely cultured in a greenhouse.
A method for investigating absolute number was employed, wherein whole seedlings of survival weeds were cut off with a blade along the soil surface, and the fresh weight of the weeds was weighed with an analytical balance. For dead weeds, the fresh weight thereof was zero.
The investigation was performed after 21 days of the treatment for only once.
An optimum ratio of the two active ingredients was determined by the actual control effect, characteristics of herbicides, and balance of a corresponding formula. Wherein, in the formula, X represented the fresh weight inhibition rate of the active ingredient A in a dosage of P, and Y represented the fresh weight inhibition rate of the active ingredient B in a dosage of Q. The statistical results were shown in the table 6.

CCC[S@@+]([O-])c1c(C(F)(F)F)ccc(C(=O)Nc2nnc(C)o2)c1F [Cpd B1]
Control effect (%) of B applied alone (B) (B 7.5 g a.i./ha): 47.8%

CS(=O)(=O)c1ccc(C(=O)C2C(=O)CCCC2=O)c(Cl)c1COCC(F)(F)F [tembotrione]
Control effect (%) of B applied alone (B) (B 15 g a.i./ha): 31.7%

CS(=O)(=O)c1ccc(C(=O)C2C(=O)CCCC2=O)c(Cl)c1COCC1CCCO1 (centres unmarked) [tefuryltrione]
Control effect (%) of B applied alone (B) (B 30 g a.i./ha): 21.5%

Cc1c(C(=O)c2cnn(C)c2O)ccc(S(C)(=O)=O)c1C1=NOCC1 [topramezone]
Control effect (%) of B applied alone (B) (B 7.5 g a.i./ha): 38.5%

Cn1[nH]c(C2CC2)c(C(=O)c2ccc(C(F)(F)F)c(N3CCCCC3=O)c2Cl)c1=O [huanbifucaotong]
Control effect (%) of B applied alone (B) (B 60 g a.i./ha): 27.4%
